Assay results taken from US20150038435A1, “N-TERMINALLY MODIFIED OLIGOPEPTIDES AND USES THEREOF” (Novo Nordisk A/S, priority 2012, published 2015).
*: point of attachment. Lauroyl = CCCCCCCCCCCC(=O)*

Legend:
[1] = Hydrophobicity: retention time during reverse phase HPLC; assay type: physicochemical; conditions: Acquity CSH C18; pH 7.2 buffer/CH3CN gradient; 40° C.
Excerpt: The retention time (RT) during reverse phase HPLC was taken as a measure of hydrophobicity of an N-terminally modified peptide or oligopeptide of the invention, where the connection is: The longer the RT, the more hydrophobic N-terminally modified peptide or oligopeptide. The following running conditions were applied during HPLC analysis:
Buffer B: 70% (v/v) aq. CH3CN

Chymotrypsin = test: Inhibition of enzymatic degradation of a model GLP-1 (FRET substrate) by chymotrypsin; assay type: biochemical
Outline: (§1)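 Initial-rate slopes of fluorescence rise (320 nm ex, 405 nm em), fitted over the linear early phase and averaged from duplicates, were plotted against inhibitor concentration and fitted logistically to give EC50. Reactions ran at 37° C in Dulbecco's PBS, with MCA/DNP GLP-1 FRET substrate added as 10 μl of 100 μM stock.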

Trypsin = test: Inhibition of enzymatic degradation of a model GLP-1 (FRET substrate) by trypsin; assay type: biochemical
Outline: as §1

[2] = compound 0.1 mM, buffer containing 8% DMSO

Substance	RT (retention time during reverse phase HPLC as a measure of hydrophobicity) [1] [min]	EC50 (Chymotrypsin; read-out: EC50 Chymotrypsin (0.001 mg/ml), 0.001 mg/ml chymotrypsin, 37° C., ± standard error if at least 3 measurements) [µM]	EC50 (Trypsin; read-out: EC50 Trypsin (0.001 mg/ml), 0.001 mg/ml trypsin, 37° C.) [µM]	Slope of the initial increase in fluorescence obtained during incubation with 0.001 mg/ml Chymotrypsin (Chymotrypsin; [2])	Slope of the initial increase in fluorescence obtained during incubation with 0.001 mg/ml Trypsin (Trypsin; [2])	Slope of the initial increase in fluorescence obtained during incubation with 0.001 mg/ml Chymotrypsin (Chymotrypsin; compound 1 mM)	Slope of the initial increase in fluorescence obtained during incubation with 0.001 mg/ml Trypsin (Trypsin; compound 1 mM)
N-dodecanoyl-Gln-Ala-Pro-Tyr-OH (Lauroyl-QAPY-OH; SMILES CCCCCCCCCCCC(=O)N[C@@H](CCC(N)=O)C(=O)N[C@@H](C)C(=O)N1CCC[C@H]1C(=O)N[C@@H](Cc1ccc(O)cc1)C(=O)O) [Example 103]	4.92	–	–	1.13	1.78	–	–
N-dodecanoyl-Gln-Pro-Tyr-OH [Example 116]	5.08	–	–	1.48	1.75	–	–
N-dodecanoyl-Glu-Ala-Ala-Pro-Tyr-OH [Example 104]	3.83	–	–	0.16	1.63	–	–
N-dodecanoyl-Glu-Ala-Pro-Tyr-OH (Lauroyl-EAPY-OH; SMILES CCCCCCCCCCCC(=O)N[C@@H](CCC(=O)O)C(=O)N[C@@H](C)C(=O)N1CCC[C@H]1C(=O)N[C@@H](Cc1ccc(O)cc1)C(=O)O) [Example 105]	3.91	–	–	1.31	1.56	–	–
N-dodecanoyl-Glu-Pro-Tyr-OH [Example 117]	3.91	–	–	1.82	1.66	–	–
N-dodecanoyl-Gly-Ala-Ala-Pro-Tyr-OH [Example 36]	5.33	–	–	0.16	1.47	–	–
N-dodecanoyl-Gly-Pro-Tyr-OH [Example 118]	5.35	–	–	1.94	1.84	–	–
N-dodecanoyl-His-Ala-Ala-Pro-Tyr-OH [Example 38]	4.94	–	–	0.02	1.66	–	–
N-dodecanoyl-His-Ala-Pro-Tyr-OH (Lauroyl-HAPY-OH; SMILES CCCCCCCCCCCC(=O)N[C@@H](Cc1c[nH]cn1)C(=O)N[C@@H](C)C(=O)N1CCC[C@H]1C(=O)N[C@@H](Cc1ccc(O)cc1)C(=O)O) [Example 39]	5.08	–	–	0.27	1.84	–	–
N-dodecanoyl-Ile-Ala-Pro-Tyr-OH (Lauroyl-IAPY-OH; SMILES CCCCCCCCCCCC(=O)N[C@H](C(=O)N[C@@H](C)C(=O)N1CCC[C@H]1C(=O)N[C@@H](Cc1ccc(O)cc1)C(=O)O)[C@@H](C)CC) [Example 41]	7.76	–	–	0.84	1.96	–	–
N-dodecanoyl-Leu-Ala-Ala-Pro-Tyr-OH [Example 42]	7.87	–	–	0.00	0.89	–	–
N-dodecanoyl-Leu-Ala-Pro-Tyr-OH (Lauroyl-LAPY-OH; SMILES CCCCCCCCCCCC(=O)N[C@@H](CC(C)C)C(=O)N[C@@H](C)C(=O)N1CCC[C@H]1C(=O)N[C@@H](Cc1ccc(O)cc1)C(=O)O) [Example 43]	7.86	–	–	0.21	1.36	–	–
N-dodecanoyl-Lys-Ala-Pro-Tyr-OH (Lauroyl-KAPY-OH; SMILES CCCCCCCCCCCC(=O)N[C@@H](CCCCN)C(=O)N[C@@H](C)C(=O)N1CCC[C@H]1C(=O)N[C@@H](Cc1ccc(O)cc1)C(=O)O) [Example 45]	4.62	–	–	0.89	1.84	–	–
N-dodecanoyl-Met-Ala-Ala-Pro-Tyr-OH (Lauroyl-MAAPY-OH; SMILES CCCCCCCCCCCC(=O)N[C@@H](CCSC)C(=O)N[C@@H](C)C(=O)N[C@@H](C)C(=O)N1CCC[C@H]1C(=O)N[C@@H](Cc1ccc(O)cc1)C(=O)O) [Example 46]	7.06	–	–	0.09	1.76	–	–
N-dodecanoyl-Met-Ala-Pro-Tyr-OH (Lauroyl-MAPY-OH; SMILES CCCCCCCCCCCC(=O)N[C@@H](CCSC)C(=O)N[C@@H](C)C(=O)N1CCC[C@H]1C(=O)N[C@@H](Cc1ccc(O)cc1)C(=O)O) [Example 47]	7.09	–	–	0.48	1.77	–	–
N-dodecanoyl-Pro-Ala-Ala-Pro-Tyr-OH [Example 48]	6.2	–	–	0.07	1.55	–	–
N-dodecanoyl-Pro-Ala-Pro-Tyr-OH (Lauroyl-PAPY-OH; SMILES CCCCCCCCCCCC(=O)N1CCC[C@H]1C(=O)N[C@@H](C)C(=O)N1CCC[C@H]1C(=O)N[C@@H](Cc1ccc(O)cc1)C(=O)O) [Example 49]	6.2	–	–	0.57	1.96	–	–
N-dodecanoyl-Pro-Pro-Tyr-OH [Example 106]	6.01	–	–	1.72	1.75	–	–
N-dodecanoyl-Ser-Ala-Ala-Pro-Tyr-OH [Example 50]	5.16	–	–	0.09	1.48	–	–

Continued, in another order:

RT (retention time during reverse phase HPLC as a measure of hydrophobicity) [1] [min]	EC50 (Chymotrypsin; read-out: EC50 Chymotrypsin (0.001 mg/ml), 0.001 mg/ml chymotrypsin, 37° C., ± standard error if at least 3 measurements) [µM]	EC50 (Trypsin; read-out: EC50 Trypsin (0.001 mg/ml), 0.001 mg/ml trypsin, 37° C.) [µM]	Substance	Slope of the initial increase in fluorescence obtained during incubation with 0.001 mg/ml Chymotrypsin (Chymotrypsin; [2])	Slope of the initial increase in fluorescence obtained during incubation with 0.001 mg/ml Trypsin (Trypsin; [2])	Slope of the initial increase in fluorescence obtained during incubation with 0.001 mg/ml Chymotrypsin (Chymotrypsin; compound 1 mM)	Slope of the initial increase in fluorescence obtained during incubation with 0.001 mg/ml Trypsin (Trypsin; compound 1 mM)
5.12	–	–	N-dodecanoyl-His-Pro-Tyr-OH [Example 119]	0.70	2.13	–	–
7.82	–	–	N-dodecanoyl-Ile-Pro-Tyr-OH [Example 120]	0.17	1.08	–	–
7.77	–	–	N-dodecanoyl-Leu-Pro-Tyr-OH [Example 121]	0.34	1.35	–	–
5.17	–	–	N-dodecanoyl-Lys-Pro-Tyr-OH [Example 122]	0.26	1.68	–	–
7.23	–	–	N-dodecanoyl-Met-Pro-Tyr-OH [Example 123]	0.82	2.11	–	–
6.21	–	–	N-dodecanoyl-OEG-OEG-DPhe-OEG-OH [Example 131]	–	–	0.53	0.62
6.34	341	391	N-dodecanoyl-OEG-OEG-DPhe-OH [Example 129]	–	–	0.16	0.38
6.21	–	–	N-dodecanoyl-OEG-OEG-Phe-OEG-OH [Example 130]	–	–	0.54	0.67
3.08	–	–	N-dodecanoyl-OEG-OEG-Phe-OH [Example 128]	–	–	0.86	0.35
8.19	–	–	N-dodecanoyl-Phe-Pro-Tyr-OH [Example 124]	0.12	0.63	–	–
